The subject of experiment [1] is LNCaP. In words: Selectivity index, ratio of IC50 for human NFF cells to IC50 for human LNCaP cells. In kind it is functional.
Experiment [2] concerns LNCaP. Nature of the experiment: Cytotoxicity against human LNCAP cells after 72 hrs by Alamar Blue assay. In kind it is functional, cell-based.
In a further experiment the test system is NFF. In words: Cytotoxicity against human NFF cells after 72 hrs by Alamar Blue assay. In kind it is cell-based.
Another experiment has as its system Malme-3M. In words: Antiproliferative activity against human MALME-3M cells. In kind it is functional, cell-based.
A short description of experiment [3]: Antiproliferative activity against human OVCAR3 cells. In kind it is functional, cell-based. The note with it: OVCAR-3.
Another experiment concerns MCF7. Nature of the experiment: Antiproliferative activity against human MCF7 cells. In kind it is functional, cell-based.

Turning to `COc1cccc2c1C(=O)c1c(O)c3c(c(O)c1C2=O)C[C@@](O)(C(=O)CO)C[C@@H]3O[C@H]1C[C@H](N)[C@H](O)[C@H](C)O1` [DOXORUBICIN], the “Ratio IC50” value with LNCaP [1] is reported as 8.97. The IC50 was determined as 0.0135 µM in the experiment on LNCaP [2] and 0.126 µM with NFF.

For `O=C(O)c1ccccc1-n1ccc2c([nH]c3ccccc32)c1=O`, the “Ratio IC50” value with LNCaP [1] is listed as 1.06. Moreover, the IC50 with LNCaP [2] came to 44.9 µM; in the experiment with NFF, 47.6 µM.

In the case of `O=C1c2ccccc2-n2c1c1[nH]c3ccccc3c1cc2=O`, in the experiment with LNCaP [1], the “Ratio IC50” value was determined as 1.4. Besides, the IC50 in the experiment on LNCaP [2] came to 22.9 µM; in the experiment with NFF, 32.1 µM.

As for `O=C(O)c1ccccc1-[n+]1ccc2c(c1)[nH]c1ccccc12.[Cl-]` [RETICULATATE], the “Ratio IC50” value in the experiment on LNCaP [1] is 0.77. For the same molecule, the IC50 was 25.9 µM in the experiment with LNCaP [2] and 19.8 µM in the experiment on NFF.

As for `O=C1c2ccccc2-[n+]2ccc3c([nH]c4ccccc43)c21` [FASCAPLYSIN], the EC50 in the experiment on Malme-3M turned out to be 0.03 mg/L; in experiment [3], 0.16 mg/L; with MCF7, 0.14 mg/L. For the same molecule, the “Ratio IC50” value in the experiment on LNCaP [1] was found to be 0.63. Also, the values for the IC50 in the experiment with LNCaP [2] and in the experiment with NFF were 0.54 µM and 0.339 µM, respectively.
